{"source": "patent US8258159B2", "about": "“Inhibitors of the α2β1/GPIa-IIa integrin” (The Trustees Of The University Of Pennsylvania, priority 2005, dated 2012)", "note": "*1 amine or outer side, *2 acyl side, *3 side chain or, on linkers, in order; H or OH if unused. Where a SMILES comes first, the peptide text is derived from it. Side-chain parts run from the residue outwards. [ ]: non-standard residue; d: D form. The star is where a group is joined. Tos = Cc1ccc(S(=O)(=O)*)cc1; Cbz = O=C(OCc1ccccc1)*; Dap = NC[C@H](N)C(=O)O; CO = O=C([*:1])[*:2]; NHBn = c1ccc(CN*)cc1; Bz = O=C(c1ccccc1)*"}
{"target": "T1, α2β1 integrin (Homo sapiens, UniProt P05556+P17301)", "T1 construct": "endogenous in cells; host or cells: gel-filtered human platelets of a single donor", "T1 sequence (P17301 30-1181)": "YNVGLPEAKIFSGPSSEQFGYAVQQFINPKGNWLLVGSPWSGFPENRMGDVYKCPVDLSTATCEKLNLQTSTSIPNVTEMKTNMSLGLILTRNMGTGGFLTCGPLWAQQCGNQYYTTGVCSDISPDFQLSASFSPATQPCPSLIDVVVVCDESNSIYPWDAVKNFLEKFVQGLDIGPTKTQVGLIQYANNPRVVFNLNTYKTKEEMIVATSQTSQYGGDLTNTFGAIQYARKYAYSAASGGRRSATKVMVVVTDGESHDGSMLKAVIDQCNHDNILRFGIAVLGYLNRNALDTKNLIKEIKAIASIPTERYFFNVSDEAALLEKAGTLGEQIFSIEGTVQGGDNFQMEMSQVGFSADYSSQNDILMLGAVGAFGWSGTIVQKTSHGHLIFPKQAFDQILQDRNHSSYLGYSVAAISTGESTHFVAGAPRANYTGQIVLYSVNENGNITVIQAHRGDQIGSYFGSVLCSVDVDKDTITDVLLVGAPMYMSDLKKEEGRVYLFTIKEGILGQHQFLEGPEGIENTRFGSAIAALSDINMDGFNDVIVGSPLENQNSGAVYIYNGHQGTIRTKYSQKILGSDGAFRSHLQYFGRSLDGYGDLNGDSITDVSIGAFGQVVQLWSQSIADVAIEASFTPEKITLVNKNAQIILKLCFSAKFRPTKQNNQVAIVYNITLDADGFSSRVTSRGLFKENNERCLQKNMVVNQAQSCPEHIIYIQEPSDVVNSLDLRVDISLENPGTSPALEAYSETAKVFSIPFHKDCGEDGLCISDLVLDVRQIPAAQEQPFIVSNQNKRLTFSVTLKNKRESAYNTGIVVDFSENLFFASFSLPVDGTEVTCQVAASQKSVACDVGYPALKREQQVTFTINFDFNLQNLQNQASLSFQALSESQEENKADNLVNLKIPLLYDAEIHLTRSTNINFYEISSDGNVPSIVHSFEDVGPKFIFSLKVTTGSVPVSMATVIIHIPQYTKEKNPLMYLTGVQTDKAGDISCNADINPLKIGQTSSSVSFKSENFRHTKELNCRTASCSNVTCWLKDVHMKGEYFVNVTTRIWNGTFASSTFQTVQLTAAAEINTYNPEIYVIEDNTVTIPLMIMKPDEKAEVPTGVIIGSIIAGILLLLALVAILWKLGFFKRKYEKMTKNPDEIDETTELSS", "T1 sequence (P05556 21-798)": "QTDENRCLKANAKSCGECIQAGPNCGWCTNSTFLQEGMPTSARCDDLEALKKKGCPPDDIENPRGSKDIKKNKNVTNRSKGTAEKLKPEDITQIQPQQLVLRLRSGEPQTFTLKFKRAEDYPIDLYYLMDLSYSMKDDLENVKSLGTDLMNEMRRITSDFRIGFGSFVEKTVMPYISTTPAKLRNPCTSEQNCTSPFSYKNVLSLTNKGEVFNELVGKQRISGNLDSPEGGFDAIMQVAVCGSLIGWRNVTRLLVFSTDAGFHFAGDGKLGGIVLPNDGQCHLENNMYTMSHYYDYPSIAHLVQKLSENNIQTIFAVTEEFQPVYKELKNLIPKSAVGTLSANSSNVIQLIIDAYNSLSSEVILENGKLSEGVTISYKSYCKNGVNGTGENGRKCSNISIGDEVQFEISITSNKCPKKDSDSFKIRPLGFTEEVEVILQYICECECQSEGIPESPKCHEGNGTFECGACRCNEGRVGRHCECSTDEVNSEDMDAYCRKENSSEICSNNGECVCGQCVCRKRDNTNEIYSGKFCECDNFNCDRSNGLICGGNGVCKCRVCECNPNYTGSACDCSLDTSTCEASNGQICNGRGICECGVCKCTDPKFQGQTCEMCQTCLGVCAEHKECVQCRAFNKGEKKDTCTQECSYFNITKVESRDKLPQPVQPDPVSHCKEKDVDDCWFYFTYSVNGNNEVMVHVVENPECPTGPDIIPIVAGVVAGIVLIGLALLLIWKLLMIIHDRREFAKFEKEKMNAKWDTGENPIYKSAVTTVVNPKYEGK", "assay": "Platelet adhesion assay (human platelet adhesion to type I collagen)", "type": "cell-based", "settings": "human platelet adhesion to type I (soluble, monomeric) collagen, static conditions; single donor; read-out: IC50", "experimental": "The inhibitory strength of the compounds of the present disclosure was analyzed as against platelet adhesion to type I collagen. Ninety-six well flat bottom microtiter plates (Immulon 2, Dynatech Laboratories, Chantilly, Va.) were coated with collagen, purified human fibrinogen, or bovine serum albumin, each dissolved in 50 mM NaHCO3 buffer, pH 8.0, containing 150 mM NaCl as previously described. See Bennett J S, Chan C, Vilaire G, Mousa S A, DeGrado W F. Agonist-Activated αvβ3 on Platelets and Lymphocytes Binds to the Matrix Protein Osteopontin. J Biol Chem. 272, 8137-814) (1997). Unoccupied protein binding sites on the wells were blocked with 5 mg/ml bovine serum albumin dissolved in the same buffer. Human platelets were isolated from blood anticoagulated with 0.1 volume 3.8% sodium citrate by gel-filtration using a 4 mM HEPES buffer, pH 7.4, containing 135 mM NaCl, 2.7 mM KCl, 5.6 mM glucose, 3.3 mM NaH2PO4, 0.35 mg/ml bovine serum albumin and various concentrations of CaCl2 or MgCl2 according to the experiment. One hundred μl aliquots of the gel-filtered platelet suspension containing 1-2×10^8 platelets were added to the protein-coated wells in the absence or presence of a platelet agonist. Following an incubation for 30 min at 37° C. without agitation, the plates were washed 4 times with the Tris-buffered NaCl, containing 2 mM MgCl2, pH 7.4, and the number of adherent platelets measured using the colorimetric assay reported by Bellavite P, Andrioli G, Guzzo P, et al. A colorimetric method for the measurement of platelet adhesion in microtiter plates. Anal Biochem. 216, 444-450 (1994). Briefly, 150 μl of a 0.1 M citrate buffer, pH 5.4, containing 5 mM p-nitrophenyl phosphate and 0.1% Triton X-100 was added to the wells after washing. After an incubation for 60 min at room temperature in the absence of ambient light, color was developed by the addition of 100 μl of 2N NaOH and, using EL800 Universal Microplate Reader (Bio-Tek Instruments, Inc., Winooski, Vt.), read in microtiter plate reader at 405 nm.\nThe potencies of the compounds of the present disclosure were determined by testing the ability of a range of concentrations of each compound to inhibit human platelet adhesion to soluble collagen under static conditions. Owing to the fact that soluble collagen is a specific ligand for α2β1 integrin, this is an accepted method of assessing α2β1 inhibition on platelets.\nIC50 values were determined by using the platelets of a single donor. In cases where multiple assays were performed, the reported results reflect the average IC50 value derived from the separate assays.", "units": {"IC50": "µM"}}
{"smiles": "O=C(NCc1ccccc1)NC[C@H](NC(=O)[C@@H]1CCCN1S(=O)(=O)c1ccc(-c2ccccc2)cc1)C(=O)O", "note": "[Compound 24, 3-(3-Benzyl-ureido)-2-{[1-(biphenyl-4-sulfonyl)-pyrrolidine-2-carbonyl]-amino}-propionic acid]", "IC50": 0.287}
{"smiles": "O=C(NCc1ccccc1)NC[C@H](NC(=O)[C@@H]1CCCN1S(=O)(=O)c1ccc([N+](=O)[O-])cc1)C(=O)O", "note": "[Compound 5, 3-(3-Benzyl-ureido)-2-{[1-(4-nitro-benzenesulfonyl)-pyrrolidine-2-carbonyl]-amino}-propionic acid]", "IC50": 0.105}
{"smiles": "O=C(NC[C@H](NC(=O)[C@@H]1CCCN1S(=O)(=O)c1ccccc1)C(=O)O)c1ccccc1", "note": "[Compound 38, 2-[(1-Benzenesulfonyl-pyrrolidine-2-carbonyl)-amino]-3-benzoylamino-propionic acid]", "IC50": 0.66}
{"smiles": "CC(=O)Nc1ccc(S(=O)(=O)N2CCC[C@H]2C(=O)N[C@@H](CNC(=O)NCc2ccccc2)C(=O)O)cc1", "note": "[Compound 21, 2-{[1-(4-Acetylamino-benzenesulfonyl)-pyrrolidine-2-carbonyl]-amino}-3-(3-benzyl-ureido)-propionic acid]", "IC50": 0.131}
{"smiles": "O=C(NCc1ccccc1)NC[C@H](NC(=O)C1CCCCN1S(=O)(=O)c1ccccc1)C(=O)O", "note": "(some centres unmarked) [Compound 51, 2-[(1-Benzenesulfonyl-piperidine-2-carbonyl)-amino]-3-(3-benzyl-ureido)-propionic acid]", "IC50": 0.056}
{"smiles": "O=C(NCc1ccccc1Cl)NC[C@H](NC(=O)[C@@H]1CCCN1S(=O)(=O)c1ccccc1)C(=O)O", "note": "[Compound 35, 2-[(1-Benzenesulfonyl-pyrrolidine-2-carbonyl)-amino]-3-[3-(2-chloro-benzyl)-ureido]-propionic acid]", "IC50": 0.107}
{"smiles": "COc1ccccc1CNC(=O)NC[C@H](NC(=O)[C@@H]1CCCN1S(=O)(=O)c1ccc([N+](=O)[O-])cc1)C(=O)O", "note": "[Compound 13, 3-[3-(2-Methoxy-benzyl)-ureido]-2-{[1-(4-nitro-benzenesulfonyl)-pyrrolidine-2-carbonyl]-amino}-propionic acid]", "IC50": 1.5}
{"smiles": "O=C(NC[C@H](NC(=O)[C@@H]1CCCN1S(=O)(=O)c1ccccc1)C(=O)O)OCc1ccccc1", "note": "[Compound 39, 2-[(1-Benzenesulfonyl-pyrrolidine-2-carbonyl)-amino]-3-benzyloxycarbonylamino-propionic acid]", "IC50": 0.185}
{"smiles": "CS(=O)(=O)c1ccc(S(=O)(=O)N2CCC[C@H]2C(=O)N[C@@H](CNC(=O)NCc2ccccc2)C(=O)O)cc1", "note": "[Compound 44, 3-(3-Benzyl-ureido)-2-{[1-(4-methanesulfonyl-benzenesulfonyl)-pyrrolidine-2-carbonyl]-amino}-propionic acid]", "IC50": 0.07}
{"smiles": "O=C(NCc1ccc(Br)cc1)NC[C@H](NC(=O)[C@@H]1CCCN1S(=O)(=O)c1ccc([N+](=O)[O-])cc1)C(=O)O", "note": "[Compound 8, 3-[3-(4-Bromo-benzyl)-ureido]-2-{[1-(4-nitro-benzenesulfonyl)-pyrrolidine-2-carbonyl]-amino}-propionic acid]", "IC50": 1.62}
{"smiles": "Nc1ccc(CNC(=O)NC[C@H](NC(=O)[C@@H]2CCCN2S(=O)(=O)c2ccc([N+](=O)[O-])cc2)C(=O)O)cc1", "note": "[Compound 19, 3-[3-(4-Amino-benzyl)-ureido]-2-{[1-(4-nitro-benzenesulfonyl)-pyrrolidine-2-carbonyl]-amino}-propionic acid]", "IC50": 0.46}
{"smiles": "O=C(NC[C@H](NC(=O)[C@@H]1CCCN1S(=O)(=O)c1ccccc1)C(=O)O)Nc1ccccc1", "note": "[Compound 36, 2-[(1-Benzenesulfonyl-pyrrolidine-2-carbonyl)-amino]-3-(3-phenyl-ureido)-propionic acid]", "IC50": 0.296}
{"smiles": "O=C(NCc1ccccc1)NC[C@H](NC(=O)[C@@H]1C=CCN1S(=O)(=O)c1ccccc1)C(=O)O", "note": "(stereo in doubt) [Compound 52, 2-[(1-Benzenesulfonyl-2,5-dihydro-1H-pyrrole-2-carbonyl)-amino]-3-(3-benzyl-ureido)-propionic acid]", "IC50": 0.143}
{"smiles": "O=C(NCc1ccccc1)NC[C@H](NC(=O)[C@@H]1CCCN1C(=O)OCc1ccccc1)C(=O)O", "note": "[Compound 23, 2-[2-(3-Benzyl-ureido)-1-carboxy-ethylcarbarmoyl]-pyrrolidine-1-carboxylic acid benzyl ester] (Cbz-Pro-[Dap]([CO-NHBn])-OH)", "IC50": 28}
{"smiles": "O=C(NCc1ccccc1)NC[C@H](NC(=O)[C@@H]1CCCN1C(=O)c1ccccc1)C(=O)O", "note": "[Compound 26, 2-[(1-Benzoyl-pyrrolidine-2-carbonyl)-amino]-3-(3-benzyl-ureido)-propionic acid] (Bz-Pro-[Dap]([CO-NHBn])-OH)", "IC50": 1000}
{"smiles": "O=C(NCc1ccccc1)NC[C@H](NC(=O)[C@@H]1CCCN1S(=O)(=O)Cc1ccccc1)C(=O)O", "note": "[Compound 22, 3-(3-Benzyl-ureido)-2-[(1-phenylmethanesulfonyl-pyrrolidine-2-carbonyl)-amino]-propionic acid]", "IC50": 11.7}
{"smiles": "CC(C)(C)OC(=O)CC[C@H](NC(=O)[C@@H]1CCCN1S(=O)(=O)c1ccc([N+](=O)[O-])cc1)C(=O)O", "note": "[Compound 6, 2-{[1-(4-Nitro-benzenesulfonyl)-pyrrolidine-2-carbonyl]-amino}-pentanedioic acid 5-tert-butyl ester]", "IC50": 22.3}
{"smiles": "COc1cccc(CNC(=O)NC[C@H](NC(=O)[C@@H]2CCCN2S(=O)(=O)c2ccccc2)C(=O)O)c1", "note": "[Compound 41, 2-[(1-Benzenesulfonyl-pyrrolidine-2-carbonyl)-amino]-3-[3-(3-methoxy-benzyl)-ureido]-propionic acid]", "IC50": 0.16}
{"smiles": "O=C(NCc1ccccc1)NC[C@H](NC(=O)[C@@H]1CCCN1S(=O)(=O)c1cc(C(F)(F)F)cc(C(F)(F)F)c1)C(=O)O", "note": "[Compound 49, 3-(3-Benzyl-ureido)-2-{[1-(3,5-bis-trifluoromethyl-benzenesulfonyl)-pyrrolidine-2-carbonyl]-amino}-propionic acid]", "IC50": 0.039}
{"smiles": "COc1cccc(CNC(=O)NC[C@H](NC(=O)[C@@H]2CCCN2S(=O)(=O)c2ccc([N+](=O)[O-])cc2)C(=O)O)c1", "note": "[Compound 14, 3-[3-(3-Methoxy-benzyl)-ureido]-2-{[1-(4-nitro-benzenesulfonyl)-pyrrolidine-2-carbonyl]-amino}-propionic acid]", "IC50": 0.79}
{"smiles": "O=C(Cc1ccccc1)Nc1ccc(S(=O)(=O)N2CCC[C@H]2C(=O)N[C@@H](CNC(=O)NCc2ccccc2)C(=O)O)cc1", "note": "[Compound 32, 3-(3-Benzyl-ureido)-2-{[1-(4-phenylacetylamino-benzenesulfonyl)-pyrrolidine-2-carbonyl]-amino}-propionic acid]", "IC50": 0.236}
{"smiles": "Cc1ccc(S(=O)(=O)N2CCC[C@H]2C(=O)N[C@@H](CNC(=O)NCc2ccccc2)C(=O)O)cc1", "note": "[Compound 27, 3-(3-Benzyl-ureido)-2-{[1-(toluene-4-sulfonyl)-pyrrolidine-2-carbonyl]-amino}-propionic acid] (Tos-Pro-[Dap]([CO-NHBn])-OH)", "IC50": 0.036}
{"smiles": "COc1ccc(CNC(=O)NC[C@H](NC(=O)[C@@H]2CCCN2S(=O)(=O)c2ccc([N+](=O)[O-])cc2)C(=O)O)cc1", "note": "[Compound 12, 3-[3-(4-Methoxy-benzyl)-ureido]-2-{[1-(4-nitro-benzenesulfonyl)-pyrrolidine-2-carbonyl]-amino}-propionic acid]", "IC50": 0.81}
{"smiles": "O=C(NC[C@H](NC(=O)[C@@H]1CCCN1S(=O)(=O)c1ccc([N+](=O)[O-])cc1)C(=O)O)Nc1ccc(-c2ccccc2)cc1", "note": "[Compound 11, 3-(3-Biphenyl-4-yl-ureido)-2-{[1-(4-nitro-benzenesulfonyl)-pyrrolidine-2-carbonyl]-amino}-propionic acid]", "IC50": 5.06}
{"smiles": "O=C(NCc1ccccc1)NC[C@H](NC(=O)[C@@H]1C[C@@H](O)CN1S(=O)(=O)c1ccccc1)C(=O)O", "note": "[Compound 47, 2-[(1-Benzenesulfonyl-4-hydroxy-pyrrolidine-2-carbonyl)-amino]-3-(3-benzyl-ureido)-propionic acid]", "IC50": 0.034}
{"smiles": "O=C(NC[C@H](NC(=O)[C@@H]1CCCN1S(=O)(=O)c1ccc([N+](=O)[O-])cc1)C(=O)O)Nc1ccc([N+](=O)[O-])cc1", "note": "[Compound 10, 2-{[1-(4-Nitro-benzenesulfonyl)-pyrrolidine-2-carbonyl]-amino}-3-[3-(4-nitro-phenyl)-ureido]-propionic acid]", "IC50": 4.6}
